Measurements published in patent US9580416B2, “Inhibitors of Bruton's tyrosine kinase” (PHARMACYCLICS LLC, priority 2014, dated 2017).

Assays:
Format in all cases: biochemical
Lck = Lck (Homo sapiens, UniProt P06239); experiment: Lck kinase activity, TR-FRET assay; settings: read-out: LCK (IC50)
Protocol: (§1) Btk kinase activity is determined using a time-resolved fluorescence resonance energy transfer (TR-FRET) methodology. Measurements are performed in a reaction volume of 50 μL using 96-well assay plates. Kinase enzyme, inhibitor, ATP (at the Km for the kinase), and 1 […] (Biotin-AVLESEEELYSSARQ-NH2) are incubated in a reaction buffer composed of 20 mM Tris, 50 mM NaCl, MgCl2 (5-25 mM depending on the kinase), MnCl2 (0-10 mM), 1 mM DTT, 0.1 mM EDTA, 0.01% bovine serum albumin, 0.005% Tween-20, and 10% DMSO at pH 7.4 for one hour. The reaction is quenched by the addition of 1.2 equivalents of EDTA (relative to divalent cation) in 25 μL of 1× Lance buffer (Perkin-Elmer). Streptavidin-APC (Perkin-Elmer) and Eu-labeled p-Tyr100 antibody (Perkin-Elmer) in 1× Lance buffer are added in a 25 μL volume to give final concentrations of 100 nM and 2.5 nM, respectively, and the mixture is allowed to incubate for one hour. The TR-FRET signal is measured on a multimode plate reader with an excitation wavelength (λEx) of 330 nm and detection wavelengths (λEm) of 615 and 665 nm. Activity is determined by the ratio of the fluorescence at 665 nm to that at 615 nm. For each compound, enzyme activity is measured at various concentrations of compound. Negative control reactions are performed in the absence of inhibitor in replicates of six, and two no-enzyme controls are used to determine baseline fluorescence levels. Inhibition constants, Ki(app), ware obtained using the program BatchKi (Kuzmic et al. (2000), Anal. Biochem. 286:45-50). IC50s are obtained according to the equation: IC50={Ki(app)/(1+[ATP]/Km^ATP)}+[E]total/2;
(§2) For all kinases, [ATP]=Km^ATP, [Btk]total=0.5 nM and [Lck]total=6 nM.

EGFR = EGFR (Homo sapiens, UniProt P00533); experiment: Inhibition of a panel of kinases, in vitro HotSpot kinase assay: EGFR
Sequence of EGFR (P00533 25-1210): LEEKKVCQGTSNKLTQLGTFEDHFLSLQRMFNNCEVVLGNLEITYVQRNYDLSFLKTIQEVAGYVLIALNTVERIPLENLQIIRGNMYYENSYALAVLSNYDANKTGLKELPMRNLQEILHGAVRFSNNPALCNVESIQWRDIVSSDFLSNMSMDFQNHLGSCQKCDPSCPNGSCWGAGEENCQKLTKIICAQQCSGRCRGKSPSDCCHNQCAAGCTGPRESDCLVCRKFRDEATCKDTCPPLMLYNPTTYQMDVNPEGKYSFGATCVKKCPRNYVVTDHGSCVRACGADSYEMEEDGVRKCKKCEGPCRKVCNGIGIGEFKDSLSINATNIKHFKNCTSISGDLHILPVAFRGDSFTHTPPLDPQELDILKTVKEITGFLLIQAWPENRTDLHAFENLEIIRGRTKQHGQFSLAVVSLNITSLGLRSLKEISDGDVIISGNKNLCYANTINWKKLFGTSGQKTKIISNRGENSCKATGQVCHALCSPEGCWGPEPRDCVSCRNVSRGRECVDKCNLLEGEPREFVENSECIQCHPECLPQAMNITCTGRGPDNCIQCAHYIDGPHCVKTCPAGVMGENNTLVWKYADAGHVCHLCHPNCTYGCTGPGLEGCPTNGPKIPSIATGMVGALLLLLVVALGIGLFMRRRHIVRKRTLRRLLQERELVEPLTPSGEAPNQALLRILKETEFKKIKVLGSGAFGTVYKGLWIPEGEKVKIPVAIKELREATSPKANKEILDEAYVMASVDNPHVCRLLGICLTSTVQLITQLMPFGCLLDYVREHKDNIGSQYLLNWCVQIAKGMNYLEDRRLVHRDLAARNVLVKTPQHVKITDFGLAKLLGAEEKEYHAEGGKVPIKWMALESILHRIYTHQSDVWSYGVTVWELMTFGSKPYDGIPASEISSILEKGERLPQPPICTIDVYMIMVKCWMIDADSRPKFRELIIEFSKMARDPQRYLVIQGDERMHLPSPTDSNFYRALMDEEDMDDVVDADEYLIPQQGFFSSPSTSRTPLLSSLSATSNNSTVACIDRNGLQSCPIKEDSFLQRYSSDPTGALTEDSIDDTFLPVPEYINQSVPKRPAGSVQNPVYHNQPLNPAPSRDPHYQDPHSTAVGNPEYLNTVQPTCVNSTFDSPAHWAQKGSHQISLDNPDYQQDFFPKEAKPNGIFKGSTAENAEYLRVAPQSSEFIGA
Protocol: The degree of inhibition of a panel of kinases is determined using the in vitro HotSpot kinase assay (purified enzymes, ^33P-ATP, an appropriate substrate and 1 uM ATP).

Btk = Btk (Homo sapiens, UniProt Q06187); experiment: Btk kinase activity, TR-FRET assay; settings: read-out: Btk (IC50)
Sequence of Btk (Q06187 whole entry): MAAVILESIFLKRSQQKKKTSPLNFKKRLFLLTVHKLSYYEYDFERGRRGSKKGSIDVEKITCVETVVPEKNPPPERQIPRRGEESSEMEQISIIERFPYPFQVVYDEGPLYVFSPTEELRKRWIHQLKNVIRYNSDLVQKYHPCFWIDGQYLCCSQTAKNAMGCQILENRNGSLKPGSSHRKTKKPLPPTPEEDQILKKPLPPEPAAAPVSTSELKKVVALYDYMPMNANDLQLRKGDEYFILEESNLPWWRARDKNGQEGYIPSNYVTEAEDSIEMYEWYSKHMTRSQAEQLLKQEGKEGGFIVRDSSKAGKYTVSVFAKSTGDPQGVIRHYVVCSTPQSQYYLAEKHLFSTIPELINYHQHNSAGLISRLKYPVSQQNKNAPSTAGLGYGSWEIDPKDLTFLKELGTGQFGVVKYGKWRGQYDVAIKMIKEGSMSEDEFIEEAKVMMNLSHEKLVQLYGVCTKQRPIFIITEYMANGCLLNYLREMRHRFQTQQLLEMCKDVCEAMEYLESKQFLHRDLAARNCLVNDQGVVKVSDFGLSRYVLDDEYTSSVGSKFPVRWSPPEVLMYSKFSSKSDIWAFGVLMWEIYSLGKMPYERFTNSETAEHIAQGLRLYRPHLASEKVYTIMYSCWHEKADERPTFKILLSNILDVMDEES
Protocol: as §1, §2

Sequence of Lck (P06239 whole entry, species assumed): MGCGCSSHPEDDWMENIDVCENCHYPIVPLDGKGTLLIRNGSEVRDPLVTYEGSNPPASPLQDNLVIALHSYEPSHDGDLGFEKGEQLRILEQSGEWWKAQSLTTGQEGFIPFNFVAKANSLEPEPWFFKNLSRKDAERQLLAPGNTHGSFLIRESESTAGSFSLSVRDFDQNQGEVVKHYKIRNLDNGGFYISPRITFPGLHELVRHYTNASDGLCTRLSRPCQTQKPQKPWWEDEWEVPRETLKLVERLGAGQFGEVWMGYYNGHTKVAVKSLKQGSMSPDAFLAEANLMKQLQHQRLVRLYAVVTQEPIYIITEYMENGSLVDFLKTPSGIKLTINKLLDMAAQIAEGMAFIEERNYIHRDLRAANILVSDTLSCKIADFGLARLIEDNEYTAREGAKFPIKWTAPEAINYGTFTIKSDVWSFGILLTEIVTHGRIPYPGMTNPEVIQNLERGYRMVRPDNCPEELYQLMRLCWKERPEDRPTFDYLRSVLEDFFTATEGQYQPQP

Row | IC50 (Lck) | IC50 (EGFR) | IC50 (Btk) | SMILES
1 | 1 to 10 µM | > 10 µM | 0.1 to 1 µM | CN(C)C/C=C/C(=O)N1CC[C@@H](Nc2n[nH]c3nccc(O[C@H]4CCN(c5ccccc5)C4)c23)C1 [compound 24, (2E)-4-(dimethylamino)-1-[(3R)-3-[(4-{[(3S)-1-phenylpyrrolidin-3-yl]oxy}-1H-pyrazolo[3,4-b]pyridin-3-yl)amino]pyrrolidin-1-yl]but-2-en-1-one]
2 | 0.1 to 1 µM | 1 to 10 µM | < 0.1 µM | CCC(=O)N1CC[C@@H](Oc2n[nH]c3nccc(Nc4ccc(C(=O)Nc5cc(C(F)(F)F)ccn5)cc4)c23)C1 [compound 71]
3 | – | > 10 µM | > 10 µM | c1ccc(Oc2ccc(Oc3ncnc4[nH]nc(N[C@@H]5CCCNC5)c34)cc2)cc1 [compound 50]
4 | < 0.1 µM | 0.1 to 1 µM | < 0.1 µM | CN1CC[C@@H](Nc2n[nH]c3nccc(Oc4ccc(Oc5ccccc5)cc4)c23)C1 [compound 45]
5 | 0.1 to 1 µM | 0.1 to 1 µM | < 0.1 µM | N#C/C(=C\c1ccccc1)C(=O)N1CC[C@@H](Nc2n[nH]c3nccc(Oc4ccc(Oc5ccccc5)cc4)c23)C1 [compound 19, (2E)-2-[(E)-(3R)-3-{[4-(4-phenoxyphenoxy)-1H-pyrazolo[3,4-b]pyridin-3-yl]amino}pyrrolidine-1-carbonyl]-3-phenylprop-2-enenitrile]
6 | 0.1 to 1 µM | 1 to 10 µM | < 0.1 µM | CCOC(=O)N1CCC[C@@H](Nc2n[nH]c3nccc(Oc4ccc(C(=O)Nc5cc(C#N)ccn5)cc4)c23)C1 [compound 78, ethyl (3R)-3-[(4-{4-[(4-cyanopyridin-2-yl)carbamoyl]phenoxy}-1H-pyrazolo[3,4-b]pyridin-3-yl)amino]piperidine-1-carboxylate]
7 | 0.1 to 1 µM | 1 to 10 µM | < 0.1 µM | CN(C/C=C/C(=O)N1CCCC[C@H]1CNc1n[nH]c2nccc(Oc3ccc(Oc4ccccc4)cc3)c12)C1CC1 [compound 37]
8 | 0.1 to 1 µM | 1 to 10 µM | < 0.1 µM | Cc1ccnc(NC(=O)c2ccc(Oc3ccnc4[nH]nc(N[C@@H]5CCCN(C(=O)C6COC6)C5)c34)cc2)c1 [compound 90, N-(4-methylpyridin-2-yl)-4-[(3-{[(3R)-1-(oxetan-3-carbonyl)piperidin-3-yl]amino}-1H-pyrazolo[3,4-b]pyridin-4-yl)oxy]benzamide]
9 | 1 to 10 µM | 1 to 10 µM | < 0.1 µM | CN(C/C=C/C(=O)N1CC[C@@H](Nc2n[nH]c3nccc(Oc4cccc(Oc5ccccc5)c4)c23)C1)C1CC1 [compound 11, (2E)-4-[cyclopropyl(methyl)amino]-1-[(3R)-3-{[4-(3-phenoxyphenoxy)-1H-pyrazolo[3,4-b]pyridin-3-yl]amino}pyrrolidin-1-yl]but-2-en-1-one]
10 | 0.1 to 1 µM | < 0.1 µM | < 0.1 µM | COCCC(=O)N1CCC[C@@H](Nc2n[nH]c3nccc(Oc4ccc(C(=O)Nc5cc(C#N)ccn5)cc4)c23)C1 [compound 80, N-(4-cyanopyridin-2-yl)-4-[(3-{[(3R)-1-(3-methoxypropanoyl)piperidin-3-yl]amino}-1H-pyrazolo[3,4-b]pyridin-4-yl)oxy]benzamide]
11 | 1 to 10 µM | > 10 µM | < 0.1 µM | CCNC(=O)N1CC[C@@H](Nc2n[nH]c3nccc(Oc4ccc(C(=O)Nc5ncc(C)s5)cc4)c23)C1 [compound 189]
12 | > 10 µM | 0.1 to 1 µM | < 0.1 µM | CN(C)C/C=C/C(=O)N1CC[C@@H](Nc2n[nH]c3nccc(Oc4ccc(Cl)cc4)c23)C1 [compound 3, (2E)-1-[(3R)-{[4-(4-chlorophenoxy)-1H-pyrazolo[3,4-b]pyridin-3-yl]amino}pyrrolidin-1-yl]-4-(dimethylamino)but-2-en-1-one]
13 | 0.1 to 1 µM | 1 to 10 µM | 0.1 to 1 µM | CCNC(=O)N1CCCC(c2n[nH]c3nccc(Oc4ccc(C(=O)Nc5cc(C(F)(F)F)ccn5)cc4)c23)C1 (stereo not shown) [compound 186]
14 | 1 to 10 µM | 1 to 10 µM | < 0.1 µM | CN(C/C=C/C(=O)N1CC[C@@H](Nc2n[nH]c3nccc(Oc4ccc(C(=O)Nc5cc(C#N)ccn5)cc4)c23)C1)C1CC1 [compound 62]
15 | 0.1 to 1 µM | – | < 0.1 µM | N#Cc1ccnc(NC(=O)c2ccc(Oc3ccnc4[nH]nc(N[C@H]5CC[C@H](O)CC5)c34)cc2)c1 [compound 82, N-(4-cyanopyridin-2-yl)-4-[(3-{[(R,4R)-4-hydroxycyclohexyl]amino}-1H-pyrazolo[3,4-b]pyridin-4-yl)oxy]benzamide]
16 | 0.1 to 1 µM | – | < 0.1 µM | CC1(C(=O)N2CCC[C@@H](Nc3n[nH]c4nccc(Oc5ccc(C(=O)Nc6cc(C(F)(F)F)ccn6)cc5)c34)C2)COC1 [compound 84, 4-[(3-{[(3R)-1-(3-methyloxetane-3-carbonyl)piperidin-3-yl]amino}-1H-pyrazolo[3,4-b]pyridin-4-yl)oxy]-N-[4-(trifluoromethyl)pyridin-2-yl]benzamide]
17 | – | – | < 0.1 µM | CN(C/C=C/C(=O)N1CCC[C@@H](Nc2n[nH]c3nccc(Oc4ccc(C(=O)Nc5cc(C(F)(F)F)ccn5)cc4)c23)C1)C1CC1 [compound 212, 4-[(3-{[(3R)-1-[(2E)-4-[cyclopropyl(methyl)amino]but-2-enoyl]piperidin-3-yl]amino}-1H-pyrazolo[3,4-b]pyridin-4-yl)oxy]-N-[4-(trifluoromethyl)pyridin-2-yl]benzamide]
18 | – | – | 0.1 to 1 µM | Cc1cc(NC(=O)c2cccc(Nc3ccnc4[nH]nc(O[C@@H]5CCCNC5)c34)c2)ccc1C(C)C [compound 259, (R)—N-(4-isopropyl-3-methylphenyl)-3-(3-(piperidin-3-yloxy)-1H-pyrazolo[3,4-b]pyridin-4-ylamino)benzamide]
19 | – | – | 0.1 to 1 µM | CN(C/C=C/C(=O)N1CCC[C@@H](Nc2n[nH]c3nccc(Oc4ccc(NC(=O)Nc5cc(C(F)(F)F)ccn5)cc4)c23)C1)C1CC1 [compound 214, 3-{4-[(3-{[(3R)-1-[(2E)-4-[cyclopropyl(methyl)amino]but-2-enoyl]piperidin-3-yl]amino}-1H-pyrazolo[3,4-b]pyridin-4-yl)oxy]phenyl}-1-[4-(trifluoromethyl)pyridin-2-yl]urea]
20 | – | – | < 0.1 µM | CC#CC(=O)N1CCC[C@@H](Nc2n[nH]c3nccc(Oc4ccc(C(=O)Nc5ncc(C#N)s5)cc4)c23)C1 [compound 168]
21 | – | – | 1 to 10 µM | Cc1c[nH]c(NC(=O)c2ccc(Oc3ccnc4[nH]nc(N[C@@H]5CCCN(C(=O)/C=C/CN(C)C6CC6)C5)c34)cc2)n1 [compound 157]
22 | – | – | 0.1 to 1 µM | CC#CC(=O)N1CCC[C@@H](Nc2n[nH]c3nccc(Oc4ccc(-c5nc6ncccc6o5)cc4)c23)C1 [compound 170]
23 | – | – | 0.1 to 1 µM | O=C(NC1CCCCC1)c1cccc(Oc2ccnc3[nH]nc(N[C@@H]4CCCNC4)c23)c1 [compound 254, (R)—N-cyclohexyl-3-(3-(piperidin-3-ylamino)-1H-pyrazolo[3,4-b]pyridin-4-yloxy)benzamide]
24 | – | – | < 0.1 µM | C=CC(=O)N1CCC(Nc2n[nH]c3nccc(Oc4ccc(Oc5ccccc5)cc4)c23)CC1 [compound 265, 1-(4-(4-(4-phenoxyphenoxy)-1H-pyrazolo[3,4-b]pyridin-3-ylamino)piperidin-1-yl)prop-2-en-1-one]
25 | – | – | < 0.1 µM | C=CC(=O)N1CC[C@@H](N(C)c2n[nH]c3nccc(Oc4ccc(Cl)cc4)c23)C1 [compound 2, 1-[(3R)-3-{[4-(4-chlorophenoxy)-1H-pyrazolo[3,4-b]pyridin-3-yl](methyl)amino}pyrrolidin-1-yl]prop-2-en-1-one]
26 | – | – | 0.1 to 1 µM | O=C(c1cccc(Oc2ccnc3[nH]nc(N[C@@H]4CCCNC4)c23)c1)N1CCOCC1 [compound 256, (R)-morpholino(3-(3-(piperidin-3-ylamino)-1H-pyrazolo[3,4-b]pyridin-4-yloxy)phenyl)methanone]
27 | – | – | 0.1 to 1 µM | Cc1cc(NC(=O)c2cccc(Oc3ccnc4[nH]nc(N[C@H]5CCNC5)c34)c2)ccc1C(C)C [compound 260, (S)—N-(4-isopropyl-3-methylphenyl)-3-(3-(pyrrolidin-3-ylamino)-1H-pyrazolo[3,4-b]pyridin-4-yloxy)benzamide]
28 | 0.1 to 1 µM | – | < 0.1 µM | CC1(C(=O)N2CCC[C@@H](Nc3n[nH]c4nccc(Oc5ccc(C(=O)Nc6cc(C#N)ccn6)cc5)c34)C2)COC1 [compound 83, N-(4-cyanopyridin-2-yl)-4-[(3-{[(3R)-1-(3-methyloxetane-3-carbonyl)piperidin-3-yl]amino}-1H-pyrazolo[3,4-b]pyridin-4-yl)oxy]benzamide]
